Data reported in ChEMBL document CHEMBL3046848, “Synthesis and biological evaluation of novel series of thieno[2,3-d]pyrimidine derivatives as anticancer and antimicrobial agents” (2013).

Tests used:
Format in all cases: functional
SF-539 = experiment: Anticancer activity against Homo sapiens (human) SF539 cells after 48 hr by SRB assay; conditions: SF-539, 48 h
SK-MEL-28 = experiment: Anticancer activity against Homo sapiens (human) SK-MEL-28 cells after 48 hr by SRB assay; conditions: SK-MEL-28, 48 h
SNB-19 = experiment: Growth inhibition of Homo sapiens (human) SNB19 cells at 10 uM after 48 hr by SRB assay; conditions: SNB-19, 48 h, read-out: GI
T47D = experiment: Growth inhibition of Homo sapiens (human) T47D cells at 10 uM after 48 hr by SRB assay; conditions: read-out: GI
IGROV-1 [1] = experiment: Anticancer activity against Homo sapiens (human) IGROV1 cells after 48 hr by SRB assay; conditions: IGROV-1, 48 h
RXF 393 = experiment: Anticancer activity against Homo sapiens (human) RXF393 cells after 48 hr by SRB assay; conditions: RXF 393, 48 h
MDA-MB-231 = experiment: Anticancer activity against Homo sapiens (human) MDA-MB-231/ATCC cells after 48 hr by SRB assay; conditions: MDA-MB-231, 48 h
BT-549 [2] = experiment: Anticancer activity against Homo sapiens (human) BT549 cells after 48 hr by SRB assay; conditions: BT-549, 48 h
COLO 205 = experiment: Anticancer activity against Homo sapiens (human) COLO205 cells after 48 hr by SRB assay; conditions: COLO 205, 48 h
NCI-H226 = experiment: Growth inhibition of Homo sapiens (human) NCI-H226 cells at 10 uM after 48 hr by SRB assay; conditions: NCI-H226, 48 h, read-out: GI
HCT-15 = experiment: Anticancer activity against Homo sapiens (human) HCT15 cells after 48 hr by SRB assay; conditions: HCT-15, 48 h
IGROV-1 [3] = experiment: Growth inhibition of Homo sapiens (human) IGROV1 cells at 10 uM after 48 hr by SRB assay; conditions: IGROV-1, 48 h, read-out: GI
SN12C = experiment: Anticancer activity against Homo sapiens (human) SN12C cells after 48 hr by SRB assay
Hs-578T = experiment: Growth inhibition of Homo sapiens (human) Hs 578T cells at 10 uM after 48 hr by SRB assay; conditions: read-out: GI
LOX IMVI [4] = experiment: Anticancer activity against Homo sapiens (human) LOXIMVI cells after 48 hr by SRB assay
Candida albicans = experiment: Antimicrobial activity against Candida albicans ATCC2091 assessed as diameter of growth inhibition zone at 1 mg/ml after 48 hr by agar cup diffusion method; conditions: ATCC2091, 48 h, read-out: IZ
LOX IMVI [5] = experiment: Growth inhibition of Homo sapiens (human) LOXIMVI cells at 10 uM after 48 hr by SRB assay; conditions: read-out: GI
HCC 2998 = experiment: Anticancer activity against Homo sapiens (human) HCC2998 cells after 48 hr by SRB assay; conditions: HCC 2998, 48 h
ACHN [6] = experiment: Growth inhibition of Homo sapiens (human) ACHN cells at 10 uM after 48 hr by SRB assay; conditions: read-out: GI
HT-29 = experiment: Growth inhibition of Homo sapiens (human) HT-29 cells at 10 uM after 48 hr by SRB assay; conditions: HT-29, 48 h, read-out: GI
K562 = experiment: Anticancer activity against Homo sapiens (human) K562 cells after 48 hr by SRB assay; conditions: K562, 48 h
TK-10 = experiment: Growth inhibition of Homo sapiens (human) TK10 cells at 10 uM after 48 hr by SRB assay; conditions: TK-10, 48 h, read-out: GI
A549 = experiment: Growth inhibition of Homo sapiens (human) A549/ATCC cells at 10 uM after 48 hr by SRB assay; conditions: A549, 48 h, read-out: GI
MDA-MB-435 = experiment: Growth inhibition of Homo sapiens (human) MDA-MB-435 cells at 10 uM after 48 hr by SRB assay; conditions: MDA-MB-435, 48 h, read-out: GI
OVCAR-4 [7] = experiment: Anticancer activity against Homo sapiens (human) OVCAR4 cells after 48 hr by SRB assay; conditions: OVCAR-4, 48 h
SK-MEL-2 = experiment: Anticancer activity against Homo sapiens (human) SK-MEL-2 cells after 48 hr by SRB assay; conditions: SK-MEL-2, 48 h
MOLT-4 = experiment: Growth inhibition of Homo sapiens (human) MOLT4 cells at 10 uM after 48 hr by SRB assay; conditions: MOLT-4, 48 h, read-out: GI
HOP-62 = experiment: Anticancer activity against Homo sapiens (human) HOP62 cells after 48 hr by SRB assay; conditions: HOP-62, 48 h
OVCAR-4 [8] = experiment: Growth inhibition of Homo sapiens (human) OVCAR4 cells at 10 uM after 48 hr by SRB assay; conditions: OVCAR-4, 48 h, read-out: GI
ACHN [9] = experiment: Anticancer activity against Homo sapiens (human) ACHN cells after 48 hr by SRB assay
BT-549 [10] = experiment: Growth inhibition of Homo sapiens (human) BT549 cells at 10 uM after 48 hr by SRB assay; conditions: BT-549, 48 h, read-out: GI
OVCAR-3 = experiment: Anticancer activity against Homo sapiens (human) OVCAR3 cells after 48 hr by SRB assay; conditions: OVCAR-3, 48 h
UACC-257 = experiment: Growth inhibition of Homo sapiens (human) UACC257 cells at 10 uM after 48 hr by SRB assay; conditions: UACC-257, 48 h, read-out: GI
[11] = read-out: LC50 (the source's name)

With `Cc1c(C(N)=O)sc2nc(C)n(/N=c3\scc(-c4ccccc4)n3Cc3ccccc3)c(=O)c12` as the compound, how does the GI50 (SF-539) read?
The GI50 was 4.02 µM.

What about the TGI (SF-539) of the same compound?
The TGI was greater than 100 µM.

What about the CC50 (SF-539; [11]) of the same compound?
Its CC50 is greater than 100 µM.

And the GI50 (SK-MEL-28)?
The GI50 was 3.56 µM.

And the TGI (SK-MEL-28)?
Its TGI is greater than 100 µM.

And the CC50 (SK-MEL-28; [11])?
The CC50 was greater than 100 µM.

What about the inhibition of growth at 10 µM (SNB-19) of the same compound?
Its inhibition of growth at 10 µM is 70.6%.

What about the inhibition of growth at 10 µM (T47D) of the same compound?
The inhibition of growth at 10 µM was 65.3%.

What about the GI50 (IGROV-1 [1]) of the same compound?
Its GI50 is 1.43 µM.

And the TGI (IGROV-1 [1])?
The TGI was 6.31 µM.

And the CC50 (IGROV-1 [1]; [11])?
The CC50 was greater than 100 µM.

And the GI50 (RXF 393)?
Its GI50 is 3.43 µM.

What about the TGI (RXF 393) of the same compound?
Its TGI is greater than 100 µM.

What about the CC50 (RXF 393; [11]) of the same compound?
Its CC50 is greater than 100 µM.

And the GI50 (MDA-MB-231)?
The GI50 was 3.28 µM.

And the TGI (MDA-MB-231)?
The TGI was 8.41 µM.

And the CC50 (MDA-MB-231; [11])?
The CC50 was greater than 100 µM.

And the GI50 (BT-549 [2])?
The GI50 was 2.41 µM.

What about the TGI (BT-549 [2]) of the same compound?
Its TGI is 8.89 µM.

What about the CC50 (BT-549 [2]; [11]) of the same compound?
The CC50 was greater than 100 µM.

What about the GI50 (COLO 205) of the same compound?
Its GI50 is 2.39 µM.

And the TGI (COLO 205)?
The TGI was 7.32 µM.

What about the CC50 (COLO 205; [11]) of the same compound?
The CC50 was greater than 100 µM.

What about the inhibition of growth at 10 µM (NCI-H226) of the same compound?
Its inhibition of growth at 10 µM is 69.1%.

And the GI50 (HCT-15)?
Its GI50 is 2.64 µM.

And the TGI (HCT-15)?
The TGI was greater than 100 µM.

And the CC50 (HCT-15; [11])?
Its CC50 is greater than 100 µM.

And the inhibition of growth at 10 µM (IGROV-1 [3])?
The inhibition of growth at 10 µM was 89.1%.

And the GI50 (SN12C)?
Its GI50 is 3.84 µM.

And the TGI (SN12C)?
Its TGI is greater than 100 µM.

And the CC50 (SN12C; [11])?
Its CC50 is greater than 100 µM.

What about the inhibition of growth at 10 µM (Hs-578T) of the same compound?
Its inhibition of growth at 10 µM is 115%.

And the GI50 (LOX IMVI [4])?
The GI50 was 3.54 µM.

And the TGI (LOX IMVI [4])?
Its TGI is greater than 100 µM.

What about the CC50 (LOX IMVI [4]; [11]) of the same compound?
The CC50 was greater than 100 µM.

What about the zone of inhibition at 1000 µg/mL (Candida albicans) of the same compound?
Its zone of inhibition at 1000 µg/mL is 17 mm.

And the inhibition of growth at 10 µM (LOX IMVI [5])?
The inhibition of growth at 10 µM was 79.4%.

And the GI50 (HCC 2998)?
The GI50 was 3.05 µM.

What about the TGI (HCC 2998) of the same compound?
Its TGI is greater than 100 µM.

And the CC50 (HCC 2998; [11])?
The CC50 was greater than 100 µM.

What about the inhibition of growth at 10 µM (ACHN [6]) of the same compound?
The inhibition of growth at 10 µM was 92.7%.

What about the inhibition of growth at 10 µM (HT-29) of the same compound?
Its inhibition of growth at 10 µM is 20.5%.

What about the GI50 (K562) of the same compound?
Its GI50 is 8.89 µM.

And the TGI (K562)?
The TGI was greater than 100 µM.

What about the CC50 (K562; [11]) of the same compound?
Its CC50 is greater than 100 µM.

And the inhibition of growth at 10 µM (TK-10)?
The inhibition of growth at 10 µM was 47.2%.

What about the inhibition of growth at 10 µM (A549) of the same compound?
Its inhibition of growth at 10 µM is 100%.

And the inhibition of growth at 10 µM (MDA-MB-435)?
Its inhibition of growth at 10 µM is 87.8%.

What about the GI50 (OVCAR-4 [7]) of the same compound?
Its GI50 is 2.5 µM.

And the TGI (OVCAR-4 [7])?
Its TGI is greater than 100 µM.

And the CC50 (OVCAR-4 [7]; [11])?
Its CC50 is greater than 100 µM.

What about the GI50 (SK-MEL-2) of the same compound?
Its GI50 is 3.89 µM.

And the TGI (SK-MEL-2)?
Its TGI is 86.6 µM.

What about the CC50 (SK-MEL-2; [11]) of the same compound?
The CC50 was greater than 100 µM.

What about the inhibition of growth at 10 µM (MOLT-4) of the same compound?
The inhibition of growth at 10 µM was 87.9%.

And the GI50 (HOP-62)?
Its GI50 is 2.82 µM.

And the TGI (HOP-62)?
Its TGI is 9.47 µM.

And the CC50 (HOP-62; [11])?
Its CC50 is greater than 100 µM.

What about the inhibition of growth at 10 µM (OVCAR-4 [8]) of the same compound?
Its inhibition of growth at 10 µM is 66.5%.

What about the GI50 (ACHN [9]) of the same compound?
Its GI50 is 2.86 µM.

What about the TGI (ACHN [9]) of the same compound?
Its TGI is greater than 100 µM.

And the CC50 (ACHN [9]; [11])?
Its CC50 is greater than 100 µM.

What about the inhibition of growth at 10 µM (BT-549 [10]) of the same compound?
Its inhibition of growth at 10 µM is 107%.

What about the GI50 (OVCAR-3) of the same compound?
The GI50 was 2.28 µM.

What about the TGI (OVCAR-3) of the same compound?
The TGI was 8.58 µM.

What about the CC50 (OVCAR-3; [11]) of the same compound?
Its CC50 is greater than 100 µM.

And the inhibition of growth at 10 µM (UACC-257)?
The inhibition of growth at 10 µM was 95.2%.
